# From article PMC8160813, “Design, Synthesis, and Evaluation of Dihydropyranopyrazole Derivatives as Novel PDE2 Inhibitors for the Treatment of Alzheimer’s Disease” (Molecules, 2021)
# Experiments:
# Type in all cases: biochemical
# [1] = target: T1, PDE2A (catalytic domain, 580–919) (Homo sapiens, UniProt O00408); test: In vitro PDE2 enzymatic inhibition assay (3H-cGMP substrate); details: for inhibition at 0.1 µM / inhibition at 0.5 µM: PDE2; for inhibition at 0.1 µM: compound at 0.1 μM, read-out: Inhibition Ratio (%) 0.1 μM; for inhibition at 0.5 µM: compound at 0.5 μM, read-out: Inhibition Ratio (%) 0.5 μM; for IC50: means ± SD of three experiments, 3H-cGMP, 25 °C, 15 min, read-out: IC50 (nM) against PDE2
# T1 construct: made in house; host or cells: E. coli BL21 (CodonPlus)
# T1 sequence (O00408 580-919): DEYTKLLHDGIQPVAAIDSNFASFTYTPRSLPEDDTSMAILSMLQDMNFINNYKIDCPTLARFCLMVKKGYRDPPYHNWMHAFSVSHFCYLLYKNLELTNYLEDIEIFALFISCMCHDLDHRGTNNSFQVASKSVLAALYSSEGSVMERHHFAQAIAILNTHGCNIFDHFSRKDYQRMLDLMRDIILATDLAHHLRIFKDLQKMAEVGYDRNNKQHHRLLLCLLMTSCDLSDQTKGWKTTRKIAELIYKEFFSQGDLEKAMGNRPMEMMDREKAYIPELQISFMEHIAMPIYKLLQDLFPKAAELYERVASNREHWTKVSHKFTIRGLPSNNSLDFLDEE
# Experimental: Purification and expression of the recombinant pET15b-PDE2A plasmid (catalytic domain, 580–919) was performed following our previously reported method. The plasmid pET15b-PDE2A (catalytic domain, 580–919) was transferred to thawed competent E. coli BL21 cells (CodonPlus, Agilent Technologies, Santa Clara, CA, USA), which were grown in 2XYT medium with 100 μg/mL ampicillin and 20 μg/mL chloramphenicol at 37 °C until OD600 = 0.6–0.8. Then, 0.1 mM isopropylthiogalactoside was added for induction, and protein expression was induced by continuing to grow the cells at 16 °C for 24 h. After that, bacteria were collected by centrifugation and frozen overnight at −20 °C. The bacteria containing the recombinant plasmid of the target protein were subjected to cell disruption and passed through a Ni-NTA agarose affinity column, Q-Sepharose ion-exchange column and other steps. The purity can be 95% or more, and a typical purification batch produces 10–20 mg of PDE2A protein from 1.0 L of cell culture.
# Using the appropriate concentration of ^3H-cGMP as the substrate, different compound solutions were added to the test group, DMSO was added to the negative control and blank control groups, and EHNA was added to the positive control group, followed by protein solution (the proteins were all diluted with Assay Buffer); Assay Buffer was added to the blank group. The enzymatic reaction was performed at room temperature (25 °C) for 15 min, and then, 0.2 M ZnSO4 was added to inactivate PDE2 and to stop the reaction. Then, 0.2 N Ba(OH)2 solution was added to precipitate the reaction product, and unreacted ^3H-cGMP remained in the supernatant. After mixing the system, it was centrifuged. The radioactivity of the supernatant was measured with a liquid scintillation counter, and the inhibitory activity of the compound against PDE2 was calculated. The above test was repeated three times (the IC50 test generally used 9 concentrations, and the single-point test was directly diluted with DMSO to the required concentration).
# PDE4D2 (86–413) = target: T2, PDE4D2 (86–413) (Homo sapiens, UniProt Q08499); test: PDE selectivity enzymatic assay, PDE4D2; details: Table 2 selectivity panel
# T2 construct: PDE4D2 (86–413)
# T2 sequence (Q08499 388-715): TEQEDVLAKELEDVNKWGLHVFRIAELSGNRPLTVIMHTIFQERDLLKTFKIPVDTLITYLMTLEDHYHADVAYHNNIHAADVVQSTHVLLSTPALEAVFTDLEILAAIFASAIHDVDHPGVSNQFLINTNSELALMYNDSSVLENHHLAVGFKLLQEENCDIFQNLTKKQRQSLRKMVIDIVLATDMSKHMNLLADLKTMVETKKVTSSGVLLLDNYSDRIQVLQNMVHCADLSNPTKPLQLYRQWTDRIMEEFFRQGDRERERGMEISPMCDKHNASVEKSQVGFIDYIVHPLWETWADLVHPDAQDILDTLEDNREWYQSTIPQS
# PDE1C (2–634) = target: T3, PDE1C (2–634) (Homo sapiens, UniProt Q14123); test: PDE selectivity enzymatic assay, PDE1C; details: Table 2 selectivity panel
# T3 construct: PDE1C (2–634)
# T3 sequence (Q14123 2-634 isoform Q14123-2): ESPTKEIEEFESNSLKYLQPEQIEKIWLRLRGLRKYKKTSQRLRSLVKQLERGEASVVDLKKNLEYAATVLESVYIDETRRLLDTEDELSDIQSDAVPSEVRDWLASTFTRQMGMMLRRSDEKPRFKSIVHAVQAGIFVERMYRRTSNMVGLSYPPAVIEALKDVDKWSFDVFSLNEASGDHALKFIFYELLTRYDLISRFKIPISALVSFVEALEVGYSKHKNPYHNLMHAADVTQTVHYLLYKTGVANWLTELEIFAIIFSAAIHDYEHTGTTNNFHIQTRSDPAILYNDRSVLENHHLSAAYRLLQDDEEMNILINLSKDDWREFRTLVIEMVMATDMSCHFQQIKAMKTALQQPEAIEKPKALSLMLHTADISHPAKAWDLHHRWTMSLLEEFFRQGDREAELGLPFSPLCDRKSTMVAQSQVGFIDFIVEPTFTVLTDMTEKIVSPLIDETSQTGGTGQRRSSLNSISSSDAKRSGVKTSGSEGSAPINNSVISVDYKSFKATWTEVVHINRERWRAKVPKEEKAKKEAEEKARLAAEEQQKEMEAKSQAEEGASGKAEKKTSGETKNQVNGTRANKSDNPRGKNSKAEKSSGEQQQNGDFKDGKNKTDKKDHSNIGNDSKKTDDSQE
inhibition at 0.1 µM [1],inhibition at 0.5 µM [1],IC50 [1],IC50 (PDE4D2 (86–413)),IC50 (PDE1C (2–634)),Compound
75.9%,93.6%,41.5 ± 3.4 nM,> 10000 nM,8760 ± 668 nM,"COc1ccc(OCc2ccc(C(F)(F)F)cc2)c(C2C(C#N)=C(N)Oc3[nH]nc(C)c32)c1 (single isomer, unassigned; (+)) [(+)-11h]"
15.1%,44.4%,807 ± 15.3 nM,,,"COc1ccc(OCc2ccc(F)cc2)c(C2C(C#N)=C(N)Oc3[nH]nc(C)c32)c1 (stereo not drawn) [Compound 11g, 6-Amino-4-(2-((4-fluorobenzyl)oxy)-5-methoxyphenyl)-3-methyl-1,4-dihydropyrano[2,3-c]pyrazole-5-carbonitrile]"
,,2460 nM,,,"CCCCCC[C@@H]([C@@H](C)O)n1cnc2c(N)ncnc21 (racemic) [EHNA, erythro-9-(2-hydroxy-3-nonyl) adenine, reference compound]"
,6.6%,,,,"Cc1n[nH]c2c1C(c1cc(OC(F)F)ccc1OCc1ccc(C(F)(F)F)cc1)C(C#N)=C(N)O2 (stereo not drawn) [Compound 11q, 6-Amino-4-(5-(difluoromethoxy)-2-((4-(trifluoromethyl)benzyl)oxy)phenyl)-3-methyl-1,4-dihydropyrano[2,3-c]pyrazole-5-carbonitrile]"
,14.1%,,,,"COc1cc(OCc2ccc(C(F)(F)F)cc2)cc(C2C(C#N)=C(N)Oc3[nH]nc(C)c32)c1 (stereo not drawn) [Compound 4b, 6-Amino-4-(3-methoxy-5-((4-(trifluoromethyl)benzyl)oxy)phenyl)-3-methyl-1,4-dihydropyrano[2,3-c]pyrazole-5-carbonitrile]"
,29%,,,,"COc1ccc(C2C(C#N)=C(N)Oc3[nH]nc(C)c32)c(OCc2ccc(Cl)cc2)c1 (stereo not drawn) [Compound 11c, 6-Amino-4-(2-((4-chlorobenzyl)oxy)-4-methoxyphenyl)-3-methyl-1,4-dihydropyrano[2,3-c]pyrazole-5-carbonitrile]"
